Laboratory results as given in patent US20220324835A1 (Nurix Therapeutics, Inc., priority 2018, published 2022).

Key:
Cbl-b [1] = target: T1, Cbl-b (Homo sapiens, UniProt Q13191); experiment: Cbl-b activity assay (Cbl-b inhibition assay), TR-FRET of Cbl-b interaction with UbcH5B-Ub; format: biochemical; details: assay buffer with 100 mM NaCl, 60 nM Src kinase; read-out: Cbl-b activity IC50
Outline: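 Compound-treated Cbl-b was incubated 1.5 h with Src kinase (60 nM final; 30 nM for asterisked values, which also used 50 mM instead of 100 mM NaCl), 1 mM ATP and 5 mM MgCl2. Binding to fluorescent Ub-loaded UbcH5B (C85K mutant) was then read by TR-FRET after 1 h more.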

T-cell [2] = experiment: IL-2 secretion from T-cells stimulated with anti-CD3 antibody alone (Biological Example 2); format: cell-based, human; details: Homo sapiens, T-cell; 1 μM Cbl-b inhibitor; fold change over baseline (anti-CD3/anti-CD28 stimulated T-cells without inhibitor); read-out: IL-2 secretion Anti-CD3 stimulation
Cbl-b [3] = target: T1, Cbl-b; experiment: Cbl-b inhibition assay (Cbl-b activity assay, FRET, Biological Example 1; 100 mM NaCl, 60 nM Src kinase); format: biochemical; details: upper bound stated in text lists; read-out: IC50 values in the Cbl-b inhibition assay of Biological Example 1
Outline: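 N-terminally biotinylated Avi-tagged Cbl-b was mixed with Src kinase, UbcH5B covalently conjugated to Bodipy-fluorescein ubiquitin, and streptavidin-terbium. Src phosphorylation lets Cbl-b bind UbcH5B-Ub, giving terbium-fluorescein FRET; inhibition is read as loss of FRET signal.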

T-cell [4] = experiment: CD25 cell surface staining on T-cells co-stimulated with anti-CD3 and anti-CD28 antibody (Biological Example 2); format: cell-based, human; details: Homo sapiens, T-cell, fold change over baseline (anti-CD3/anti-CD28 stimulated T-cells without inhibitor), read-out: CD25 staining Anti-CD3/Anti-CD28 stimulation; for fold induction at 0.3 µM: 0.3 μM Cbl-b inhibitor; for fold induction at 1 µM: 1 μM Cbl-b inhibitor
Outline: (§1)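 Values are fold-change over baseline: readings (IL-2 release, CD25 staining) from inhibitor-treated T-cells divided against untreated cells […]. No detailed procedure stated.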

T-cell [5] = experiment: IL-2 secretion from T-cells co-stimulated with anti-CD3 and anti-CD28 antibody (Biological Example 2); format: cell-based, human; details: Homo sapiens, T-cell, fold change over baseline (anti-CD3/anti-CD28 stimulated T-cells without inhibitor), read-out: IL-2 secretion Anti-CD3/Anti-CD28 stimulation; for fold induction at 0.3 µM: 0.3 μM Cbl-b inhibitor; for fold induction at 1 µM: 1 μM Cbl-b inhibitor
Outline: as §1

T-cell [6] = experiment: CD25 cell surface staining on T-cells stimulated with anti-CD3 antibody alone (Biological Example 2); format: cell-based, human; details: Homo sapiens, T-cell; 1 μM Cbl-b inhibitor; fold change over baseline (anti-CD3/anti-CD28 stimulated T-cells without inhibitor); read-out: CD25 staining Anti-CD3 stimulation

T1 sequence (Q13191 36-427): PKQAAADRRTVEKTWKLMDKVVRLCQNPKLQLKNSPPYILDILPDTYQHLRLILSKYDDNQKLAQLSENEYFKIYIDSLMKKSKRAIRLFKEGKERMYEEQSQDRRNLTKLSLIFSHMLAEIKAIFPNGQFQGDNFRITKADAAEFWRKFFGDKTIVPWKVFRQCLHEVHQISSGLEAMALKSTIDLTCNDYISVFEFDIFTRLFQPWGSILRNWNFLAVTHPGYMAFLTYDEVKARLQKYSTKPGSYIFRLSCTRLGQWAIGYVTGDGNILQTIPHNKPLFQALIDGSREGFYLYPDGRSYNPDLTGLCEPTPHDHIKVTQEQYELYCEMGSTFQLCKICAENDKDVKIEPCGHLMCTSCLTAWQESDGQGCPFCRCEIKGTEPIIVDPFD

| Structure (SMILES) | IC50 (Cbl-b [1]) | fold induction at 1 µM (T-cell [2]) | IC50 (Cbl-b [3]) | fold induction at 0.3 µM (T-cell [4]) | fold induction at 1 µM (T-cell [4]) | fold induction at 0.3 µM (T-cell [5]) | fold induction at 1 µM (T-cell [5]) | fold induction at 1 µM (T-cell [6]) |
| --- | --- | --- | --- | --- | --- | --- | --- | --- |
| Cn1cnnc1CC1(c2cccc(N3Cc4c(cc(C5=CN6CCC5CC6)cc4C(F)(F)F)C3=O)c2)COC1 [Example 559, 6-(l-azabicyclo[2.2.2]oct-2-en-3-yl)-2-(3-(3-((4-methyl-4H-1,2,4-triazol-3-yl)methyl)oxetan-3-yl)phenyl)-4-(trifluoromethyl)isoindolin-1-one] | 100 to 300 nM | < 0.05 | ≤ 300 nM | 1.01 to 1.3 | 1.01 to 1.3 | 1.01 to 2.5 | 2.51 to 5 | 0.601 to 0.8 |
| Cn1cnnc1CC1(c2cccc(N3Cc4c(cc(C5CN6CCC5CC6)cc4C(F)(F)F)C3=O)c2)COC1 (centres unmarked) [Example 560, 2-(3-(3-((4-methyl-4H-1,2,4-triazol-3-yl)methyl)oxetan-3-yl)phenyl)-6-(quinuclidin-3-yl)-4-(trifluoromethyl)isoindolin-1-one] | < 100 nM | < 0.05 | ≤ 100 nM | 1.01 to 1.3 | 1.01 to 1.3 | 2.51 to 5 | 5 to 7.5 | 0.601 to 0.8 |
| Cn1cnnc1CC1(c2cccc(N3Cc4c(cc(N5CCOC5=O)cc4C(F)(F)F)C3=O)c2)COC1 [Example 561, 3-(2-(3-(3-((4-Methyl-4H-1,2,4-triazol-3-yl)methyl)oxetan-3-yl)phenyl)-3-oxo-7-(trifluoromethyl)isoindolin-5-yl)oxazolidin-2-one] | < 100 nM | < 0.05 | ≤ 100 nM | 1.01 to 1.3 | 1.01 to 1.3 | 1.01 to 2.5 | 2.51 to 5 | 0.601 to 0.8 |
| CN1C[C@H]2C[C@@H]1CN2c1cc2c(c(C(F)(F)F)c1)CN(c1cccc([C@@](C)(F)C(F)(F)c3nncn3C)c1)C2=O [Example 562, 6-((1R,4R)-5-Methyl-2,5-diazabicyclo[2.2.1]heptan-2-yl)-2-(3-((R)-1,1,2-trifluoro-1-(4-methyl-4H-1,2,4-triazol-3-yl)propan-2-yl)phenyl)-4-(trifluoromethyl)-isoindolin-1-one] | < 100 nM | > 0.201 | ≤ 100 nM | 1.51 to 1.75 | 1.51 to 1.75 | 5 to 7.5 | > 7.5 | > 1 |
| CN1C[C@@H]2C[C@H]1CN2c1cc2c(c(C(F)(F)F)c1)CN(c1cccc([C@@](C)(F)C(F)(F)c3nncn3C)c1)C2=O [Example 563, 6-((1S,4S)-5-Methyl-2,5-diazabicyclo[2.2.1]heptan-2-yl)-2-(3-((R)-1,1,2-trifluoro-1-(4-methyl-4H-1,2,4-triazol-3-yl)propan-2-yl)phenyl)-4-(trifluoromethyl)-isoindolin-1-one] | < 100 nM | 0.051 to 0.1 | ≤ 100 nM | 1.01 to 1.3 | 1.31 to 1.5 | 1.01 to 2.5 | 2.51 to 5 | 0.801 to 1 |
| CN1C2CCC1CN(c1cc3c(c(C(F)(F)F)c1)CN(c1cccc([C@@](C)(F)C(F)(F)c4nncn4C)c1)C3=O)C2 [Example 564, 6-(8-Methyl-3,8-diazabicyclo[3.2.1]octan-3-yl)-2-(3-((R)-1,1,2-trifluoro-1-(4-methyl-4H-1,2,4-triazol-3-yl)propan-2-yl)phenyl)-4-(trifluoromethyl)isoindolin-1-one] | < 100 nM | 0.101 to 0.15 | ≤ 100 nM | 1.01 to 1.3 | 1.31 to 1.5 | 1.01 to 2.5 | 2.51 to 5 | 0.801 to 1 |
| CN1CC2CCC1CN2c1cc2c(c(C(F)(F)F)c1)CN(c1cccc([C@@](C)(F)C(F)(F)c3nncn3C)c1)C2=O (stereo partly drawn) [Example 565, 6-(5-Methyl-2,5-diazabicyclo[2.2.2]octan-2-yl)-2-(3-((R)-1,1,2-trifluoro-1-(4-methyl-4H-1,2,4-triazol-3-yl)propan-2-yl)phenyl)-4-(trifluoromethyl)isoindolin-1-one] | < 100 nM | 0.101 to 0.15 | ≤ 100 nM | 1.31 to 1.5 | 1.31 to 1.5 | 1.01 to 2.5 | 2.51 to 5 | > 1 |
| CN1CC2CC(C1)N2c1cc2c(c(C(F)(F)F)c1)CN(c1cccc([C@@](C)(F)C(F)(F)c3nncn3C)c1)C2=O [Example 566, 6-(3-Methyl-3,6-diazabicyclo[3.1.1]heptan-6-yl)-2-(3-((R)-1,1,2-trifluoro-1-(4-methyl-4H-1,2,4-triazol-3-yl)propan-2-yl)phenyl)-4-(trifluoromethyl)isoindolin-1-one] | < 100 nM | 0.101 to 0.15 | ≤ 100 nM | 1.31 to 1.5 | 1.51 to 1.75 | 5 to 7.5 | > 7.5 | > 1 |
| Cn1cnnc1CC1(c2cccc(N3Cc4c(cc(N5CCOCC5)cc4C(F)(F)F)C3=O)c2)COC1 [Example 567, 2-(3-(3-((4-Methyl-4H-1,2,4-triazol-3-yl)methyl)oxetan-3-yl)phenyl)-6-morpholino-4-(trifluoromethyl)isoindolin-1-one] | < 100 nM | 0.051 to 0.1 | ≤ 100 nM | 1.01 to 1.3 | 1.01 to 1.3 | 1.01 to 2.5 | 2.51 to 5 | 0.801 to 1 |
| Cn1cnnc1CC1(c2cccc(N3Cc4c(cc(C5CC5)nc4C4CC4)C3=O)c2)COC1 [Example 568, 4,6-Dicyclopropyl-2-(3-(3-((4-methyl-4H-1,2,4-triazol-3-yl)methyl)oxetan-3-yl)phenyl)-2,3-dihydro-1H-pyrrolo[3,4-c]pyridin-1-one] | < 100 nM | 0.101 to 0.15 | ≤ 100 nM | 1.01 to 1.3 | 1.01 to 1.3 | 1.01 to 2.5 | 1.01 to 2.5 | 0.801 to 1 |
| CN1C[C@H]2C[C@@H]1CN2c1cc2c(c(C(F)(F)F)c1)CN(c1cccc(C3(Cc4nncn4C)COC3)c1)C2=O [Example 569, 2-(3-(3-((4-Methyl-4H-1,2,4-triazol-3-yl)methyl)oxetan-3-yl)phenyl)-6-((1R,4R)-5-methyl-2,5-diazabicyclo[2.2.1]heptan-2-yl)-4-(trifluoromethyl)isoindolin-1-one] | < 100 nM | > 0.201 | ≤ 100 nM | 1.31 to 1.5 | 1.31 to 1.5 | > 7.5 | > 7.5 | > 1 |
| C[C@@H](c1cc2c(c(C(F)(F)F)c1)CN(c1cccc(C3(C(F)(F)c4nncn4C)COC3)c1)C2=O)N1CC[C@H](F)C1 [Example 570, 2-(3-(3-(Difluoro(4-methyl-4H-1,2,4-triazol-3-yl)methyl)oxetan-3-yl)phenyl)-6-((S)-1-((S)-3-fluoropyrrolidin-1-yl)ethyl)-4-(trifluoromethyl)isoindolin-1-one] | < 100 nM | > 0.201 | ≤ 100 nM | 1.31 to 1.5 | 1.51 to 1.75 | 2.51 to 5 | > 7.5 | > 1 |
| CN1CC2CC(C1)N2c1cc(C(=O)Nc2cccc(C3(Cc4nncn4C)COC3)c2)nc(C2CC2)n1 [Example 572, 2-Cyclopropyl-N-(3-(3-((4-methyl-4H-1,2,4-triazol-3-yl)methyl)oxetan-3-yl)phenyl)-6-(3-methyl-3,6-diazabicyclo[3.1.1]heptan-6-yl)pyrimidine-4-carboxamide] | < 100 nM | > 0.201 | ≤ 100 nM | 1.31 to 1.5 | 1.31 to 1.5 | > 7.5 | > 7.5 | > 1 |
